Where two headings read alike, the source gives them in different places.
Legend:
[1] = molecular target: T1, AKR1C2 (Homo sapiens, UniProt P52895); assay: Inhibition of recombinant AKR1C2, oxidation of 1-acenaphthenol, progress-curve analysis; type: biochemical; conditions: for k+2: irreversible binding of second inhibitor molecule to E-NAD-I; for k+3: irreversible binding of second inhibitor molecule to E-NADH-I; for fold less efficient inhibition of AKR1C2 compared to AKR1C1: from K3 values
T1 construct: made in house
T1 sequence (P52895 1-323): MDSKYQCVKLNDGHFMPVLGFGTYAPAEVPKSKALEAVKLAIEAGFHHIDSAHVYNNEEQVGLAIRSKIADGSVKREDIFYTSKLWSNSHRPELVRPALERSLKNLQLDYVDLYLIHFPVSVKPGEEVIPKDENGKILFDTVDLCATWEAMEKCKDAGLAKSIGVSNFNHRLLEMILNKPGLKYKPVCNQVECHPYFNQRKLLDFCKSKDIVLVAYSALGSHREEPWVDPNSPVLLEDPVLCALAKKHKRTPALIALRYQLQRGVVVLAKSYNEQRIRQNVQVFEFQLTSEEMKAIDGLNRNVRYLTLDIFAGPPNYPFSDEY
Method: (§1) To investigate the effect of ten selected ruthenium compounds, we measured their effect on the time course of oxidation of the artificial substrate 1-acenaphtenol by recombinant enzymes AKR1C1–3. The recombinant enzymes AKR1C1–AKR1C3 were prepared as described previously ([Brozic et al., 2006]). Since the artificial substrate is racemic, the oxidation follows a double exponential pattern as described previously ([Traven et al., 2015]). The in vitro catalytic activity of AKR1C1–3 enzymes was determined spectrophotometrically by monitoring the increase in NADH absorbance at 340 nm (ε(λ340) = 6220 M^−1cm^−1) in the presence of the substrate 1-acenaphthenol. Enzymatic reactions (300 µL) were performed in 100 mm potassium phosphate buffer (pH 9.0), 0.005% (v/v) TritonX-114, 5% (v/v) DMSO, containing 2.3 mm NAD^+ and 1-acenaphthenol at final concentrations of 90, 180, and 250 µM for AKR1C1, AKR1C2, and AKR1C3, respectively. A total of 5 µL of a tested compound in DMSO was added to the reaction mixture. The final concentrations of the tested compounds ranged from 1 to 200 μM, depending on the extent of inhibition (Supplementary Data). The reaction was started by adding 15 µL of AKR1C1, AKR1C2, or AKR1C3 dissolved in 1x PBS (pH 7.3) at final concentrations of 0.11, 0.16, and 1.5 µM, respectively. AKR1C1–3 activity was measured at 37°C for 3 h without shaking using a PowerWave XS microplate reader (Biotek; Winooski, VT, United States). Measurements at seven different concentrations were performed in duplicates or triplicates (Supplementary Figures S2). To mechanistically explain all the obtained progress curves for each ruthenium complex on each enzyme by a common reaction scheme, we extended the originally proposed scheme so that the interaction of the ruthenium complex with apo- and holoenzyme was allowed to be rapid and followed by a slow irreversible association of a second ruthenium complex molecule. However, the affinity of the Ru complexes for the apoenzymes was much lower so this part was excluded from the proposed kinetic model for clarity (Figure 4).
(§2) FIGURE 4 Reaction scheme for the oxidation of 1-acenaphtenol by AKR1C1-3 and its inhibition by ruthenium compounds. E represents apoenzyme, E-NAD and E-NADH represent holoenzyme with bound NAD^+ and NADH, respectively. A and B are enantiomers of substrate 1-acenaphtenol. Symbols which include I (ruthenium compound) represent holoenzyme in complex with one or two inhibitor molecules. KNAD, KNADH, and K2-3 are equilibrium constants and k+2–3 are second-order association rate constants for the binding of the second inhibitor molecule to the enzyme. The progress curves for each enzyme in the presence of ruthenium complexes were analyzed by the WEB server ENZO (https://enzo.cmm.ki.si/) designed exactly for such purposes ([Bevc et al., 2011]).

[2] = molecular target: T2, AKR1C3 (Homo sapiens, UniProt P42330); assay: Inhibition of recombinant AKR1C3, oxidation of 1-acenaphthenol, progress-curve analysis; type: biochemical; conditions: for inhibitory effect (in words) / irreversible inhibition (in words) / Ki / k+2 / k+3: AKR1C3; for k+2: irreversible binding of second inhibitor molecule to E-NAD-I; for k+3: irreversible binding of second inhibitor molecule to E-NADH-I; for fold less efficient inhibition of AKR1C3 compared to AKR1C1: from K3 values
T2 construct: made in house
T2 sequence (P42330 1-323): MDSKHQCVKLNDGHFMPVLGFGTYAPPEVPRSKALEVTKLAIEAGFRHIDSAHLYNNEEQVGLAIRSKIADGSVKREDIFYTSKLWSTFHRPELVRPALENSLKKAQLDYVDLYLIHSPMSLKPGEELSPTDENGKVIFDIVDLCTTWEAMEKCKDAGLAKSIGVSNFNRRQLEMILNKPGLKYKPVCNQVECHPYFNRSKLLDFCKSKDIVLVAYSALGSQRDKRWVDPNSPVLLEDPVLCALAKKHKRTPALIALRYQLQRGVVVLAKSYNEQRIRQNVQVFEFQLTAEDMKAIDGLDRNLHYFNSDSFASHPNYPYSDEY
Method: as §1, §2

[3] = AKR1C2, reversible binding to holoenzyme E-NAD, read-out: K2
[4] = reversible binding to holoenzyme E-NAD, read-out: K2
[5] = AKR1C2, reversible binding to holoenzyme E-NADH, read-out: K3
[6] = reversible binding to holoenzyme E-NADH, read-out: K3

| SMILES | inhibitory effect (in words) ([1]; AKR1C2) | irreversible inhibition (in words) ([1]; AKR1C2) | Ki [1, 3] [µM] | inhibitory effect (in words) [2] | irreversible inhibition (in words) [2] | Ki [2, 4] [µM] | k+2 ([1]; AKR1C2) [M⁻¹ s⁻¹] | k+2 [2] [M⁻¹ s⁻¹] | k+3 ([1]; AKR1C2) [M⁻¹ s⁻¹] | Ki [1, 5] [µM] | fold less efficient inhibition of AKR1C2 compared to AKR1C1 [1] [fold] | k+3 [2] [M⁻¹ s⁻¹] | Ki [2, 6] [µM] | fold less efficient inhibition of AKR1C3 compared to AKR1C1 [2] [fold] |
| --- | --- | --- | --- | --- | --- | --- | --- | --- | --- | --- | --- | --- | --- | --- |
| Cc1ccc(C(C)C)cc1.O=[N+]([O-])c1ccc([O][Ru][Cl])c2ncccc12 [Compound 9, (η ^6-p-Cymene) (nitroxolinato)chloridoruthenium (II)] | very weak inhibitory effect | virtually no irreversible inhibition | 191 | very weak inhibitory effect | virtually no irreversible inhibition | 439 |  |  |  |  |  |  |  |  |
| C1N2CN3CN1CP(C2)C3.Cc1ccc(C(C)C)cc1.F[P-](F)(F)(F)(F)F.O=C(C=C([O][Ru+])c1ccc2c(c1)OCO2)C(F)(F)F [Compound 6] |  |  | 8.3 |  |  | 92.7 | 172 | 90 |  |  |  |  |  |  |
| C1N2CN3CN1CP(C2)C3.Cc1ccc(C(C)C)cc1.F[P-](F)(F)(F)(F)F.O=[N+]([O-])c1ccc([O][Ru+])c2ncccc12 [Compound 10, (η ^6-p-cymene)(nitroxolinato)(pta)ruthenium(II) hexafluorophosphate] |  |  | 42.5 | Almost no inhibition | no irreversible inhibition | 561 | 5.1 |  |  |  |  |  |  |  |
| C1N2CN3CN1CP(C2)C3.Cc1ccc(C(C)C)cc1.F[P-](F)(F)(F)(F)F.O=C(C=C([O][Ru+])c1ccc(I)cc1)C(F)(F)F [Compound 2] |  |  | 80 |  |  | 116 | 12.6 | 5.3 |  |  |  |  |  |  |
| Cc1ccc(C(C)C)cc1.O=C(C=C([O][Ru][Cl])c1ccc(I)cc1)C(F)(F)F [Compound 1] |  |  | 305 |  |  | 105 |  |  | 7.7 | 0.0527 | 2.5 | 0.9 | 0.163 | 7.6 |
| CN(C)c1ccc(C(=CC(=O)C(F)(F)F)[O][Ru][Cl])cc1.Cc1ccc(C(C)C)cc1 [Compound 3, (η^6-p-cymene)chlorido(4,4,4-trifluoro-1-(4-(dimethylamino)phenyl)-1,3-butandionato)ruthenium(II)] |  |  | 157 |  |  | 179 | 7.4 | 10.2 | 55.4 | 1.12 | 26 | 1.2 | 0.306 | 7.1 |
| C1N2CN3CN1CP(C2)C3.Cc1ccc(C(C)C)cc1.F[P-](F)(F)(F)(F)F.[O-]c1c(I)cc(Cl)c2cccnc12.[Ru+2] [Compound 8] |  |  | 1.6 |  |  |  | 929 |  |  |  |  |  |  |  |
| Cc1ccc(C(C)C)cc1.[Cl-].[O-]c1c(I)cc(Cl)c2cccnc12.[Ru+2] [Compound 7] |  |  |  | Almost no inhibition |  |  |  |  | 11.1 | 0.0654 |  |  |  |  |
| Cc1ccc(C(C)C)cc1.O=C(C=C([O][Ru][Cl])c1ccc2c(c1)OCO2)C(F)(F)F [Compound 5] |  |  |  |  |  |  |  |  | 7.3 | 0.0662 | 2.8 | 0.5 | 0.15 | 6.3 |

From publication PMC9403717, “Ruthenium complexes show potent inhibition of AKR1C1, AKR1C2, and AKR1C3 enzymes and anti-proliferative action against chemoresistant ovarian cancer cell line” (Frontiers in Pharmacology, 2022)
